# Active and inactive are the calls of the source. No rule for the calls is given here.
# System: CCRIS mutagenicity, Ames/micronucleus/aberration tests
# Assay: CCRIS mutagenicity studies
# [1] = Test System: AMES SALMONELLA TYPHIMURIUM, Strain/Indicator: TA100, Metabolic Activation: NONE, Method: STANDARD PLATE
# [2] = Test System: AMES SALMONELLA TYPHIMURIUM, Strain/Indicator: TA1537, Metabolic Activation: NONE, Method: STANDARD PLATE
smiles,measurement,setting,value
CC(=O)[CH-]C(=O)c1ccccc1.CC(=O)[CH-]C(=O)c1ccccc1.CC[O-].CC[O-].[Ti+4],mutagenic call,"Test System: AMES SALMONELLA TYPHIMURIUM, Strain/Indicator: TA98, Metabolic Activation: NONE, Method: STANDARD PLATE",inactive; negative
same,mutagenic call,"Test System: AMES SALMONELLA TYPHIMURIUM, Strain/Indicator: TA98, Metabolic Activation: RAT, LIVER, S-9, AROCLOR 1254, Method: STANDARD PLATE",inactive; negative
same,mutagenic call,[1],inactive; negative
same,mutagenic call,"Test System: AMES SALMONELLA TYPHIMURIUM, Strain/Indicator: TA100, Metabolic Activation: RAT, LIVER, S-9, AROCLOR 1254, Method: PREINCUBATION",inactive; negative
same,mutagenic call,"Test System: AMES SALMONELLA TYPHIMURIUM, Strain/Indicator: TA100, Metabolic Activation: RAT, LIVER, S-9, AROCLOR 1254, Method: STANDARD PLATE",inactive; negative
same,mutagenic call,"Test System: AMES SALMONELLA TYPHIMURIUM, Strain/Indicator: TA1535, Metabolic Activation: NONE, Method: STANDARD PLATE",inactive; negative
same,mutagenic call,"Test System: AMES SALMONELLA TYPHIMURIUM, Strain/Indicator: TA1535, Metabolic Activation: RAT, LIVER, S-9, AROCLOR 1254, Method: PREINCUBATION",inactive; negative
same,mutagenic call,"Test System: AMES SALMONELLA TYPHIMURIUM, Strain/Indicator: TA1535, Metabolic Activation: RAT, LIVER, S-9, AROCLOR 1254, Method: STANDARD PLATE",inactive; negative
same,mutagenic call,[2],inactive; negative
same,mutagenic call,"Test System: AMES SALMONELLA TYPHIMURIUM, Strain/Indicator: TA1537, Metabolic Activation: RAT, LIVER, S-9, AROCLOR 1254, Method: STANDARD PLATE",inactive; negative
same,mutagenic call,"Test System: AMES SALMONELLA TYPHIMURIUM, Strain/Indicator: TA1538, Metabolic Activation: NONE, Method: STANDARD PLATE",inactive; negative
same,mutagenic call,"Test System: AMES SALMONELLA TYPHIMURIUM, Strain/Indicator: TA1538, Metabolic Activation: RAT, LIVER, S-9, AROCLOR 1254, Method: STANDARD PLATE",inactive; negative
CCn1c(N)nc2c3cccnc3cc(C)c21,mutagenic call,"Test System: AMES SALMONELLA TYPHIMURIUM, Strain/Indicator: TA98, Metabolic Activation: RAT, LIVER, S-9, AROCLOR 1254, Method: PREINCUBATION",active; positive
Cc1c2ccccc2c(CCl)c2ccc3ccccc3c12,mutagenic call,[1],active; positive
same,mutagenic call,[2],active; positive
COC(=O)CC(C)=O,mutagenic call,"End Point: In vitro chromosomal aberrations, Test System: Chinese hamster lung (CHL/IU) cells, Metabolic Activation: None",inactive; negative
same,mutagenic call,"End Point: In vitro chromosomal aberrations, Test System: Chinese hamster lung (CHL/IU) cells, Metabolic Activation: Rat, Liver, S9, Phenobarbital and 5,6-benzoflavone",active; positive (ploidy)
same,mutagenic call,"Test System: AMES SALMONELLA TYPHIMURIUM, Strain/Indicator: TA98, Metabolic Activation: NONE, Method: PREINCUBATION",inactive; negative
same,mutagenic call,"Test System: AMES SALMONELLA TYPHIMURIUM, Strain/Indicator: TA98, Metabolic Activation: RAT LIVER S-9, PHENOBARBITAL AND BETA-NAPHTHOFLAVONE, Method: PREINCUBATION",inactive; negative
same,mutagenic call,"Test System: AMES SALMONELLA TYPHIMURIUM, Strain/Indicator: TA98, Metabolic Activation: RAT, LIVER, S-9, KC 500, Method: PREINCUBATION",inactive; negative
same,mutagenic call,"Test System: AMES SALMONELLA TYPHIMURIUM, Strain/Indicator: TA100, Metabolic Activation: NONE, Method: PREINCUBATION",inactive; negative
same,mutagenic call,"Test System: AMES SALMONELLA TYPHIMURIUM, Strain/Indicator: TA100, Metabolic Activation: RAT LIVER S-9, PHENOBARBITAL AND BETA-NAPHTHOFLAVONE, Method: PREINCUBATION",inactive; negative
same,mutagenic call,"Test System: AMES SALMONELLA TYPHIMURIUM, Strain/Indicator: TA100, Metabolic Activation: RAT, LIVER, S-9, KC 500, Method: PREINCUBATION",inactive; negative
same,mutagenic call,"Test System: AMES SALMONELLA TYPHIMURIUM, Strain/Indicator: TA1535, Metabolic Activation: NONE, Method: PREINCUBATION",inactive; negative
same,mutagenic call,"Test System: AMES SALMONELLA TYPHIMURIUM, Strain/Indicator: TA1535, Metabolic Activation: RAT LIVER S-9, PHENOBARBITAL AND BETA-NAPHTHOFLAVONE, Method: PREINCUBATION",inactive; negative
same,mutagenic call,"Test System: AMES SALMONELLA TYPHIMURIUM, Strain/Indicator: TA1535, Metabolic Activation: RAT, LIVER, S-9, KC 500, Method: PREINCUBATION",inactive; negative
same,mutagenic call,"Test System: AMES SALMONELLA TYPHIMURIUM, Strain/Indicator: TA1537, Metabolic Activation: NONE, Method: PREINCUBATION",inactive; negative
same,mutagenic call,"Test System: AMES SALMONELLA TYPHIMURIUM, Strain/Indicator: TA1537, Metabolic Activation: RAT LIVER S-9, PHENOBARBITAL AND BETA-NAPHTHOFLAVONE, Method: PREINCUBATION",inactive; negative
same,mutagenic call,"Test System: AMES SALMONELLA TYPHIMURIUM, Strain/Indicator: TA1537, Metabolic Activation: RAT, LIVER, S-9, KC 500, Method: PREINCUBATION",inactive; negative
same,mutagenic call,"Test System: AMES SALMONELLA TYPHIMURIUM, Strain/Indicator: TA1538, Metabolic Activation: NONE, Method: PREINCUBATION",inactive; negative
same,mutagenic call,"Test System: AMES SALMONELLA TYPHIMURIUM, Strain/Indicator: TA1538, Metabolic Activation: RAT, LIVER, S-9, KC 500, Method: PREINCUBATION",inactive; negative
same,mutagenic call,"Test System: E. COLI, Strain/Indicator: WP2 UVRA, Metabolic Activation: NONE, Method: PREINCUBATION",inactive; negative
same,mutagenic call,"Test System: E. COLI, Strain/Indicator: WP2 UVRA, Metabolic Activation: RAT, LIVER, S-9, KC 500, Method: PREINCUBATION",inactive; negative
same,mutagenic call,"Test System: E.COLI, Strain/Indicator: WP2UVRA/PKM101, Metabolic Activation: NONE, Method: PREINCUBATION",inactive; negative
same,mutagenic call,"Test System: E.COLI, Strain/Indicator: WP2UVRA/PKM101, Metabolic Activation: RAT LIVER S-9, PHENOBARBITAL AND BETA-NAPHTHOFLAVONE, Method: PREINCUBATION",inactive; negative
